The results in this text go back to US10106515B2, “1-(cyclopent-2-en-1-yl)-3-(2-hydroxy-3-(arylsulfonyl)phenyl)urea derivatives as CXCR2 inhibitors” (GLAXOSMITHKLINE INTELLECTUAL PROPERTY DEVELOPMENT LIMITED, priority 2014, dated 2018).

Where a name gives a salt, the structure may show the parent alone. A value given as a limit tells only on which side of the number the result lay.

The target of the assay is T1, recombinant human CXCR2 (Homo sapiens, UniProt P25025).
T1 construct: TEV protease site; Gal4-VP16 transcription factor
T1 sequence (P25025 1-360): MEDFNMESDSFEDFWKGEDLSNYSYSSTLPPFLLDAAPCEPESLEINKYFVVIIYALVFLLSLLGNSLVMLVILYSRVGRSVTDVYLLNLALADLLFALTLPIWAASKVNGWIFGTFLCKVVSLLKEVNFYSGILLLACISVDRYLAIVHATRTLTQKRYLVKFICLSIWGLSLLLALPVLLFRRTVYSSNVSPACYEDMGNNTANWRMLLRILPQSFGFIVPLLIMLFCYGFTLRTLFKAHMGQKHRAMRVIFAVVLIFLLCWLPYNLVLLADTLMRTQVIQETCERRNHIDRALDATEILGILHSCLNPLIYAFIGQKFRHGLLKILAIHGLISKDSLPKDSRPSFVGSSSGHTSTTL
In words: CXCR2 Tango assay. The format is cell-based. Particulars: mean pIC50 of multiple test results; stimulated with 80 nM hCXCL1; reporter gene blue/green emission ratio; read-out: pIC50 (CXCR2 Tango assay) (converted). The procedure, abridged:
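Mean pIC50 comes from sigmoidal fits of the blue/green (460/530 nm) CCF4-AM ratio, normalized between hCXCL1-stimulated and DMSO controls. Compounds in 10-point dose response were incubated overnight at 37 °C with recombinant human CXCR2 Tango cells (~10,000/well) and 80 nM hCXCL1, with reporter read-out via arrestin-TEV release of Gal4-VP16.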
For the molecule `CC1=CCCC1NC(=O)Nc1ccc(Cl)c(S(=O)(=O)C2CCN3CCCC3C2)c1O` (centres unmarked) [Compound 109, 1-(4-chloro-2-hydroxy-3-((octahydroindolizin-7-yl)sulfonyl)phenyl)-3-(2-methylcyclopent-2-en-1-yl)urea, trifluoroacetic acid salt], the IC50 is no more than 10 nM. The result for `CC1=CCCC1NC(=O)Nc1ccc(Cl)c(S(=O)(=O)N2CC(F)(F)C2)c1O` (centres unmarked) [Compound 111, 1-(4-chloro-3-((3,3-difluoroazetidin-1-yl)sulfonyl)-2-hydroxyphenyl)-3-(2-methylcyclopent-2-en-1-yl)urea] reads no more than 10 nM; that for `CC1=CCCC1NC(=O)Nc1ccc(Cl)c(S(=O)(=O)N2CC[C@@H](F)C2)c1O` (stereo partly drawn) [Compound 113, 1-(4-chloro-3-(((R)-3-fluoropyrrolidin-1-yl)sulfonyl)-2-hydroxyphenyl)-3-(2-methylcyclopent-2-en-1-yl)urea], no more than 10 nM; that for `CC1=CCCC1NC(=O)Nc1ccc(Cl)c(S(=O)(=O)N2CCC(F)(F)CC2)c1O` (centres unmarked) [Compound 115, 1-(4-chloro-3-((4,4-difluoropiperidin-1-yl)sulfonyl)-2-hydroxyphenyl)-3-(2-methylcyclopent-2-en-1-yl)urea], no more than 10 nM. As for `CC1=CCCC1NC(=O)Nc1ccc(Cl)c(S(=O)(=O)N2CCCC2)c1O` (centres unmarked) [Compound 116, 1-(4-chloro-2-hydroxy-3-(pyrrolidin-1-ylsulfonyl)phenyl)-3-(2-methylcyclopent-2-en-1-yl)urea], the figure is no more than 10 nM; as for `CC1=CCCC1NC(=O)Nc1ccc(Cl)c(S(=O)(=O)N2CCn3ccnc3C2)c1O` (centres unmarked) [Compound 117, 1-(4-chloro-3-((5,6-dihydroimidazo [1,2-a]pyrazin-7(8H)-yl)sulfonyl)-2-hydroxyphenyl)-3-(2-methylcyclopent-2-en-1-yl)urea], no more than 10 nM. The result for `CC1=CCCC1NC(=O)Nc1ccc(Cl)c(S(=O)(=O)N2CCOCC2)c1O` (centres unmarked) [Compound 118, 1-(4-chloro-2-hydroxy-3-(morpholinosulfonyl)phenyl)-3-(2-methylcyclopent-2-en-1-yl)urea] reads no more than 10 nM; that for `CCC1=CCCC1NC(=O)Nc1ccc(Cl)c(S(=O)(=O)C(C)C)c1O` (centres unmarked) [Compound 120, 1-(4-chloro-2-hydroxy-3-(isopropylsulfonyl)phenyl)-3-(2-ethylcyclopent-2-en-1-yl)urea], no more than 10 nM.

Turning to `CCN(CC)S(=O)(=O)c1c(Cl)ccc(NC(=O)NC2CCC=C2C)c1O` (centres unmarked) [Compound 121, 6-chloro-N,N-diethyl-2-hydroxy-3-(3-(2-methylcyclopent-2-en-1-yl)ureido)benzene-sulfonamide], the IC50 was no more than 10 nM. The result for `CCO[C@H]1C[C@@H](S(=O)(=O)c2c(Cl)ccc(NC(=O)N[C@@H]3CCC=C3C)c2O)C1` [Compound 124, (R)-1-(4-chloro-3-((cis-3-ethoxycyclobutyl)sulfonyl)-2-hydroxyphenyl)-3-(2-methylcyclopent-2-en-1-yl)urea] reads no more than 1 nM. Turning to `CCO[C@H]1C[C@@H](S(=O)(=O)c2c(Cl)ccc(NC(=O)N[C@@H]3CCC=C3Cl)c2O)C1` [Compound 125, 1-(4-chloro-3-(((1s,3s)-3-ethoxycyclobutyl)sulfonyl)-2-hydroxyphenyl)-3-(2-chlorocyclopent-2-en-1-yl)urea], the IC50 was no more than 10 nM. As for `CC1=CCC[C@H]1NC(=O)Nc1ccc(Cl)c(S(=O)(=O)C2CC[C@@H](N(C)C)C2)c1O` (stereo partly drawn) [Compound 127, cis-1-(4-chloro-3-((3-(dimethylamino)cyclopentyl)sulfonyl)-2-hydroxyphenyl)-3-((R)-2-methylcyclopent-2-en-1-yl)urea], the figure is no more than 1 nM; as for `CC1=CCCC1NC(=O)Nc1ccc(Cl)c(S(=O)(=O)[C@H]2CC[C@@H](N(C)C)CC2)c1O` (some centres unmarked) [Compound 129, 1-(4-chloro-3-(((1s,4s)-4-(dimethylamino)cyclohexyl)sulfonyl)-2-hydroxyphenyl)-3-(2-methylcyclopent-2-en-1-yl)urea, trifluoroacetic acid salt], no more than 1 nM; as for `CN(C)[C@H]1CC[C@@H](S(=O)(=O)c2c(Cl)ccc(NC(=O)NC3CCC=C3Cl)c2O)CC1` (stereo partly drawn) [Compound 130, 1-(4-chloro-3-((cis-4-(dimethylamino)cyclohexyl)sulfonyl)-2-hydroxyphenyl)-3-(2-chlorocyclopent-2-en-1-yl)urea, trifluoroacetic acid salt], no more than 1 nM. Consider `CC1=CCCC1NC(=O)Nc1ccc(Cl)c(S(=O)(=O)[C@H]2C[C@H](CN(C)C)C2)c1O` (some centres unmarked) [Compound 131, 1-(4-chloro-3-(((1r,3r)-3-((dimethylamino)methyl)cyclobutyl)sulfonyl)-2-hydroxyphenyl)-3-(2-methylcyclopent-2-en-1-yl)urea, trifluoroacetic acid salt], for which the IC50 was no more than 10 nM. As for `CN(C)C[C@H]1C[C@@H](S(=O)(=O)c2c(Cl)ccc(NC(=O)NC3CCC=C3Cl)c2O)C1` (stereo partly drawn) [Compound 132, 1-(4-chloro-3-((cis-3-((dimethylamino)methyl)cyclobutyl)sulfonyl)-2-hydroxyphenyl)-3-(2-chlorocyclopent-2-en-1-yl)urea, trifluoroacetic acid salt], the figure is no more than 10 nM; as for `CC1=CCCC1NC(=O)Nc1ccc(Cl)c(S(=O)(=O)[C@H]2C[C@H](N(C)C)C2)c1O` (stereo partly drawn) [Compound 133, 1-(4-chloro-3-((trans-3-(dimethylamino)cyclobutyl)sulfonyl)-2-hydroxyphenyl)-3-(2-methylcyclopent-2-en-1-yl)urea], no more than 10 nM; as for `CN(C)[C@H]1C[C@H](S(=O)(=O)c2c(Cl)ccc(NC(=O)NC3CCC=C3Cl)c2O)C1` (stereo partly drawn) [Compound 134, 1-(4-chloro-3-((trans-3-(dimethylamino)cyclobutyl)sulfonyl)-2-hydroxyphenyl)-3-(2-chlorocyclopent-2-en-1-yl)urea], no more than 10 nM. The result for `CC1=CCCC1NC(=O)Nc1ccc(Cl)c(S(=O)(=O)N(C)C)c1O` (centres unmarked) [Compound 137, 6-chloro-2-hydroxy-N,N-dimethyl-3-(3-(2-methylcyclopent-2-en-1-yl)ureido)benzene-sulfonamide] reads no more than 10 nM; that for `O=C(O)C(F)(F)F.[2H]C([2H])([2H])N1CCC(C)(S(=O)(=O)c2c(Cl)ccc(NC(=O)N[C@@H]3CCC=C3C)c2O)CC1` [Compound 139, (R)-1-(4-chloro-2-hydroxy-3-((4-methyl-1-(d3-methyl)piperidin-4-yl)sulfonyl)phenyl)-3-(2-methylcyclopent-2-en-1-yl)urea, trifluoroacetic acid salt], no more than 10 nM. The result for `CC1=CCCC1NC(=O)Nc1ccc(Cl)c(S(=O)(=O)C2CC3(CCN(C)CC3)C2)c1O` (centres unmarked) [Compound 140, 1-(4-chloro-2-hydroxy-3-((7-methyl-7-azaspiro[3.5]nonan-2-yl)sulfonyl)phenyl)-3-(2-methylcyclopent-2-en-1-yl)urea] reads no more than 10 nM; that for `CO[C@@H]1COCC[C@@H]1S(=O)(=O)c1c(Cl)ccc(NC(=O)N[C@@H]2CCC=C2C)c1O` [Compound 145, 1-(4-chloro-2-hydroxy-3-(((3R,4S)-3-methoxytetrahydro-2H-pyran-4-yl)sulfonyl)phenyl)-3-((R)-2-methylcyclopent-2-en-1-yl)urea], no more than 10 nM; that for `CO[C@H]1C[C@@H](S(=O)(=O)c2c(Cl)ccc(NC(=O)NC3C=CCC3)c2O)C1` (stereo partly drawn) [Compound 147, 1-(4-chloro-2-hydroxy-3-((cis-3-methoxycyclobutyl)sulfonyl)phenyl)-3-(cyclopent-2-en-1-yl)urea], no more than 10 nM.

Turning to `CO[C@H]1C[C@@H](S(=O)(=O)c2c(Cl)ccc(NC(=O)NC3CCC=C3C)c2O)C1` (stereo partly drawn) [Compound 148, 1-(4-chloro-2-hydroxy-3-((cis-3-methoxycyclobutyl)sulfonyl)phenyl)-3-(2-methylcyclopent-2-en-1-yl)urea], the IC50 is no more than 10 nM. As for `CO[C@H]1C[C@@H](S(=O)(=O)c2c(Cl)ccc(NC(=O)NC3CCC=C3Cl)c2O)C1` (stereo partly drawn) [Compound 149, 1-(4-chloro-2-hydroxy-3-((cis-3-methoxycyclobutyl)sulfonyl)phenyl)-3-(2-chlorocyclopent-2-en-1-yl)urea], the IC50 is no more than 10 nM.

Regarding `COC[C@H]1C[C@H](S(=O)(=O)c2c(Cl)ccc(NC(=O)NC3CCC=C3C)c2O)C1` (stereo partly drawn) [Compound 153, 1-(4-chloro-2-hydroxy-3-((trans-3-(methoxymethyl)cyclobutyl)sulfonyl)phenyl)-3-(2-methylcyclopent-2-en-1-yl)urea], the IC50 is no more than 10 nM.

Take `COC1CCN(S(=O)(=O)c2c(Cl)ccc(NC(=O)NC3CCC=C3C)c2O)CC1` (centres unmarked) [Compound 154, 1-(4-chloro-2-hydroxy-3-((4-methoxypiperidin-1-yl)sulfonyl)phenyl)-3-(2-methylcyclopent-2-en-1-yl)urea]: the IC50 is no more than 10 nM.

Turning to `COCC(C)(C)S(=O)(=O)c1c(Cl)ccc(NC(=O)NC2CCC=C2C)c1O` (centres unmarked) [Compound 156, 1-(4-chloro-2-hydroxy-3-((1-methoxy-2-methylpropan-2-yl)sulfonyl)phenyl)-3-(2-methylcyclopent-2-en-1-yl)urea], the IC50 is no more than 10 nM.

As for `COCC(C)(C)S(=O)(=O)c1c(Cl)ccc(NC(=O)NC2CCC=C2Cl)c1O` (centres unmarked) [Compound 157, 1-(4-chloro-2-hydroxy-3-((1-methoxy-2-methylpropan-2-yl)sulfonyl)phenyl)-3-(2-chlorocyclopent-2-en-1-yl)urea], the IC50 was no more than 10 nM.
